Experimental data as given in US12329735B2, “Azelaic acid esters in the treatment of insulin resistance” (NEW FRONTIER LABS, LLC, priority 2016, dated 2025).

Assays:
[1] = system: PAMP receptors (Toll-Like Receptors) on dendritic cells; test: PAMP receptor agonist-induced signaling in dendritic cells; assay type: cell-based; conditions: 0.5% DEA, 24 hours
Description: The azelates modulated broad-range signaling of pathogen-associated molecular patterns (PAMP) receptors: Toll-Like Receptors (TLRs) are a class of PAMP receptors. Various PAMP receptor agonists (ligands); nineteen discrete entities, were added to dendritic cells along with 0.5% diethyl azelate (DEA) and measured levels of 34 signaling molecules (ATP, cytokines, chemokines) produced by the cells after 24 hours. To assess if DEA affected PAMP receptor signaling, the ratios of the levels of these molecules were calculated in treated and untreated cells. If DEA had no effect, these ratios would be equal to 1. […] A similar effect of DEA was observed on the ratios of other signaling molecules.

[2] = Human clinical trial: OGTT in non-diabetic insulin resistant adult males at Day 1 and Day 21; assay type: in vivo; conditions: for Percent change: Day-1 vs. Day-21 average blood glucose: (Day-1 − Day-21)/Day-21 ×100%; for OGTT Blood Glucose Level, Day-21 Group Average: after 21 days 1 mg/kg oral once a day, 3 subjects
Description: A total of eight subjects were screened, out of which four subjects satisfied all the eligibility criteria. Three healthy male volunteers ranging between 18-50 years of age weighing between 80-120 kg were enrolled in the study. At screening, subjects were non-diabetic insulin resistant (NDIR) having a fasting plasma glucose of greater than 75 mg/dL and less than 126 mg/dL and have a compensatory hyperinsulinemia having a mean of two consecutive fasting insulin samples collected between 10 to 30 minutes apart of great than 12 μIU/mL. Subjects had no clinically significant illness that may affect glucose metabolism, insulin sensitivity or makes them otherwise unsuitable for inclusion in the study. Subjects had no history or ongoing significant abnormalities or diseases, in the areas, such as, endocrine, gastrointestinal, cardiovascular, hematological, renal, upper or lower respiratory, neoplasia. Subjects had no uncontrolled blood pressure of greater than 160/95 mmHg at screening. […] Subjects had not used antidiabetic or antihyperglycemic medications in the last 6 months. Subjects had not used tobacco or nicotine containing products in the last 3 months. Subjects were not mentally or legally incapacitated. Subjects had no history of significant psychiatric disorder (within the last 10 years) and had no significant emotional problems at the time of the study. All subjects were evaluable for safety and all blood collections for pharmacokinetic analysis were collected as scheduled. All studies were performed with institutional review board approval and patient consent. The Board was constituted and operated in accordance with the principles and requirements described in the US Code of Federal Regulations (21 CFR Part 56). The board was ICH compliant. This study was an open label test/retest study measuring the change from baseline of selected biomarkers and computational indices of insulin sensitivity of the adult male volunteers in response to multiple doses of diethyl azelate. The study population was restricted to male participants in order to control for the variability associated with the menstrual cycle on the metabolic parameters of interest (Sheu, Chen et al. 2003). Baseline parameters were assessed followed by retest assessments at three weeks (21-days) post-dose. Diethyl azelate (density of 0.973 g/mL at 25° C. or 973 mg/mL) was administered orally by needless syringes once a day at 1 mg/kg to each subject for 21 days starting at Day 1. The dose was calculated as described below, with standard rounding conventions applied to the nearest 0.01 mL: 1 mg/kg×Participant Weight (kg)×(1 mL/973 mg)=X mL to Dose Additional marketed pharmaceutical products were administered as part of the study procedures or as challenge agents associated with the Oral Glucose Tolerance (OGTT). These include 75 g CHO (carbohydrate) Glucola and small volumes of 0.9% Normal Saline administered intravenously secondary to blood collection. Subjects were evaluated with a baseline OGTT on Day 1 and a final OGTT on Day 21. Safety assessments were performed on each subject during the course of the study including clinical examination, vital signs recording, ECG recording, adverse event (AE) monitoring, and concomitant medication assessment. An Oral Glucose Tolerance Test (OGTT) was performed at baseline on Day 1 and Day 21. The OGTT was performed after a fast greater than eight hours and consisted of eight blood collections. Subjects were administrated a bottle of Glucola drink (containing 50% dextrose I 75 g dextrose in 150 mL solution; available as GlucoCrush™) over a course of five minutes, starting at T=0 (first sip of the Glucola). Two blood-draws occurred ˜30 minutes and just prior (˜0 minute) to administration of the Glucola. Post-meal blood collection occurred at 30, 60, 90, 120, and 180 minutes. Samples for glucose and exploratory PK and biomarker samples were collected at all timepoints associated with the OGTT. […]

[3] = system: EpiDerm 3-D human skin tissue; test: EpiDerm 3-D human skin tissue exposed to croton oil plus azelates, multiplex immunoassays of 47 markers; assay type: cell-based; conditions: croton oil + azelate, 24 hours; medium and tissue lysates
Description: EpiDerm 3-D human skin tissue (MatTek) was exposed to an irritant, croton oil+the azelates for 24 hours. Levels of 47 cytokines and other signaling molecules were measured in cultured media and tissue lysates using multiplex immunoassays. Relative % differences in levels of select markers in medium and tissues after treatment with croton oil plus azelates versus croton oil alone were graphed as heat maps displaying statistically significant/nearly significant differences and distinct patterns of marker modulation. The azelates also exerted chemoprotective activity against croton oil damage on microscopic examination.

[4] = Human clinical trial: safety and tolerability; assay type: in vivo
Description: To evaluate the safety and tolerability of diethyl azelate (immediate release form) when administered orally to insulin resistant adult male volunteers, and to evaluate the change from baseline of selected biomarkers and computational indices of dysmetabolism when diethyl azelate is administered orally to insulin resistant adult male volunteers.
A total of eight subjects were screened, out of which four subjects satisfied all the eligibility criteria. Three healthy male volunteers ranging between 18-50 years of age weighing between 80-120 kg were enrolled in the study. At screening, subjects were non-diabetic insulin resistant (NDIR) having a fasting plasma glucose of greater than 75 mg/dL and less than 126 mg/dL and have a compensatory hyperinsulinemia having a mean of two consecutive fasting insulin samples collected between 10 to 30 minutes apart of great than 12 μIU/mL. Subjects had no clinically significant illness that may affect glucose metabolism, insulin sensitivity or makes them otherwise unsuitable for inclusion in the study. Subjects had no history or ongoing significant abnormalities or diseases, in the areas, such as, endocrine, gastrointestinal, cardiovascular, hematological, renal, upper or lower respiratory, neoplasia. Subjects had no uncontrolled blood pressure of greater than 160/95 mmHg at screening. […] Subjects had not used antidiabetic or antihyperglycemic medications in the last 6 months. […]
Diethyl azelate (density of 0.973 g/mL at 25° C. or 973 mg/mL) was administered orally by needless syringes once a day at 1 mg/kg to each subject for 21 days starting at Day 1. The dose was calculated as described below, with standard rounding conventions applied to the nearest 0.01 mL: 1 mg/kg×Participant Weight (kg)×(1 mL/973 mg)=X mL to Dose
Additional marketed pharmaceutical products were administered as part of the study procedures or as challenge agents associated with the Oral Glucose Tolerance (OGTT). […] Subjects were evaluated with a baseline OGTT on Day 1 and a final OGTT on Day 21. […]

[5] = Oral glucose tolerance test in ethanol-induced insulin resistance state, human self-study; assay type: in vivo
[6] = oral 1 mg/kg once a day, 21 days, three subjects

CCOC(=O)CCCCCCCC(=O)OCC [diethyl azelate]
signaling induced by TLR agonists (ATP ratio treated/untreated cells) [1]: decreased signaling induced by most TLR agonists
effect on signaling of PAMP receptors ([1]; 34 signaling molecules): affected signaling of all PAMP receptors but the effect was greater for the receptors localized on the cell surface than for these inside the cell
Percent change: Day-1 vs. Day-21 average blood glucose ([2]; 0 min): 6.5%
OGTT Blood Glucose Level, Day-21 Group Average ([2]; 0 min): 94.5 mg/dL
Percent change: Day-1 vs. Day-21 average blood glucose ([2]; 30 min): 14.5%
OGTT Blood Glucose Level, Day-21 Group Average ([2]; 30 min): 148.0 mg/dL
Percent change: Day-1 vs. Day-21 average blood glucose ([2]; 60 min): 15.7%
OGTT Blood Glucose Level, Day-21 Group Average ([2]; 60 min): 142.3 mg/dL
Percent change: Day-1 vs. Day-21 average blood glucose ([2]; 90 min): 46.3%
OGTT Blood Glucose Level, Day-21 Group Average ([2]; 90 min): 105.8 mg/dL
Percent change: Day-1 vs. Day-21 average blood glucose ([2]; 120 min): 15.1%
OGTT Blood Glucose Level, Day-21 Group Average ([2]; 120 min): 99.2 mg/dL
Percent change: Day-1 vs. Day-21 average blood glucose ([2]; 180 min): 18.6%
OGTT Blood Glucose Level, Day-21 Group Average ([2]; 180 min): 71.2 mg/dL
insulin metabolism profile after treatment ([2]; all three subjects, after 21 days of treatment): normal healthy insulin metabolism profiles
average blood glucose levels after the 3-weeks treatment course ([2]; at T=30 mins and 60 mins, pre-treatment 164 to 170 mg/dl): below 150 mg/dl
Percent change: Day-1 vs. Day-21 average blood glucose ([2]; −5 min): 6.2%
OGTT Blood Glucose Level, Day-21 Group Average ([2]; −5 min): 94.0 mg/dL
Percent change: Day-1 vs. Day-21 average blood glucose ([2]; −30 min): 6.0%
OGTT Blood Glucose Level, Day-21 Group Average ([2]; −30 min): 94.1 mg/dL
cytokine levels (IL-1 a, IL-6, IL-8, TNF-a) versus croton oil alone [3]: downregulated multiple cytokines relevant to T2D including IL-1 a, IL-6, IL-8, and TNF-a
adverse events observed [4, 6]: loose stools in one subject
drug-related changes in physical examinations, vital signs, or electrocardiograms (ECGs) [4, 6]: no clinically meaningful drug-related changes
tolerability ([4]; oral, three male subjects): well tolerated
percentage decrease of glucose levels vs untreated control state (ethanol-induced insulin resistance) ([5]; fasting (t=0), p=0.02): 13.6%
change in blood glucose in induced insulin resistance state (OGTT) ([5]; human self-study, 50 ml ethanol, 1 mg/kg oral 8 hours prior to OGTT (75 g glucose), 0, 1, 2, 4 hours): significant decrease of glucose at the baseline (fasting) and highly significant (p<0.0001) at the peak postprandial time point at 2 hours
percentage decrease of glucose levels vs untreated control state (ethanol-induced insulin resistance) ([5]; t=1 hour, statistically not significant): 11.4%
percentage decrease of glucose levels vs untreated control state (ethanol-induced insulin resistance) ([5]; t=2 hours, p=6×10−6): 36.7%
increase in glucose level vs untreated control state (ethanol-induced insulin resistance) ([5]; t=4 hours, not statistically significant): 8.8%
